# According to patent US10617662B2, “Autophagy activation-induced compound for improving skin inflammation for aging” (INCOSPHARM CORPORATION, priority 2017, dated 2020):
# Legend:
# [1] = test system: Beclin-1; test: Western blot for Beclin-1 protein; format: cell-based, human; settings: HaCaT cells; 20 uM dilution, 1 ml added to 1 ml medium; FIG. 1
# Experimental: In order to analyze which gene expression is related to increased autophagy activation by Compound 8 of the present invention, a western blot analysis for Beclin-1 and ULK-1 (Serine/threonine-protein kinase-1) proteins which are closely related to autophagy activation was performed.
# As a specific experimental method, HaCaT cells, human-derived keratinocytes were seeded on a 60Ø dish at a density of 3×10^5 cells, and cultured in DMEM (Dulbecco's Modified Eagle Media, Gibco BRL) in an incubator under 37° C. and 5% CO2 for 24 hours. Compound 8 of the present invention was dissolved in DMSO at a concentration of 10 mM each to be a concentrate, and diluted with a medium to be at a concentration of 20 uM. Then in a state where 1 ml of medium was first in each well, 1 ml of each diluted solution was added thereto for treatment, and cultured for a certain period, and after completing the culturing, the medium was removed, and then cells were disrupted with a SDS sample buffer, and each protein was separated by SDS-PAGE gel electrophoresis, and transferred to a PVDF membrane. […]
# [2] = test system: IL-36G (interleukin 36, gamma); test: RT-PCR of psoriasis-related gene IL-36G; format: cell-based, human; settings: HEKa cells, 20 uM, FIGS. 2 and 3
# Experimental: (§1) A psoriasis-related genes were selected from the cDNA array result in which Compound 8 of the present invention was treated in HaCaT cells. In order to analyze whether Compound 8 has an effect on psoriasis alleviation, RT-PCR analysis for IL-36′ (interleukin 36 gamma), KLK7 (Kallikrein-related peptidase 7), OASL (2′-5′-Oligoadenylate Synthetase Like) and ALOX12B (Arachidonate 12-lipoxygenase, 12R type) which are very closely related to psoriasis was carried out. Further, KRT16 (Keratin 16), KRT6 (Keratin 6) and KRT1 (Keratin 1), known as psoriasis-related proliferation, differentiation markers were confirmed by a western blot analysis. As the specific experimental method, HEKa cells (Human Epidermal keratinocytes, adult), human-derived epidermal keratinocytes were seeded on a 24 well plate at a density of 1×10^5 cells, and cultured in an EpiLife medium (1× Human keratinocyte Growth supplement, 1× antibiotics) in an incubator under 37° C. and 5% CO2 for 24 hours. […]
# [3] = test system: KLK7 (Kallikrein-related peptidase 7); test: RT-PCR of psoriasis-related gene KLK7; format: cell-based, human; settings: HEKa cells, 20 uM, FIGS. 2 and 3
# Experimental: as §1
# [4] = test system: OASL (2′-5′-Oligoadenylate Synthetase Like); test: RT-PCR of psoriasis-related gene OASL; format: cell-based, human; settings: HEKa cells, 20 uM, FIGS. 2 and 3
# Experimental: as §1
# [5] = test system: ALOX12B (Arachidonate 12-lipoxygenase, 12R type); test: RT-PCR of psoriasis-related gene ALOX12B; format: cell-based, human; settings: HEKa cells, 20 uM, FIGS. 2 and 3
# Experimental: as §1
# [6] = test system: Foxp3 (forkhead box P3); test: Expression of psoriasis-related transcription factor Foxp3 in induced inflammatory condition; format: cell-based, human; settings: IL-17A/TNFα- or IL-17A/IFNγ-induced inflammatory condition
# Experimental: [The source words this procedure for another target and says it was used here with some conditions changed.] as §1
# [7] = test system: KRT6 (Keratin 6); test: Western blot of proliferative marker KRT6; format: cell-based, human; settings: FIG. 4
# Experimental: as §1
# [8] = test system: KRT16 (Keratin 16); test: Western blot of proliferative marker KRT16; format: cell-based, human; settings: FIG. 4
# Experimental: as §1
# [9] = test system: KRT1 (Keratin 1); test: Western blot of differentiation marker KRT1; format: cell-based, human; settings: FIG. 4
# Experimental: as §1
# [10] = test system: psoriasis animal model induced by imiquimod 5% cream; test: Psoriasis animal model, H&E staining of back tissue; format: in vivo, BALB/c mice; settings: FIG. 15
# Experimental: In order to confirm the psoriasis treatment effect by Compound 8 of the present invention, dorsal hair of 8-week-old BALB/c mice (female) was removed using hair removal cream (Veet®, Oxy Reckitt Benckiser, Cedex, France), and subsequently imiquimod 5% cream (Aldara®; 3M Pharmaceuticals, UK; 62.5 mg) was applied on the back and both ears of the mice twice in the morning and in the afternoon (Sensitization; Day 0). Then, after a barrier recovery period of 2 days, imiquimod 5% cream (62.5 mg/day) was applied repeatedly for 7 days (Induction stage; Day 2 -Day 8), thereby inducing the psoriasis animal model.
# After inducing the psoriasis animal model, Compound 8 of the present invention dissolved in ethanol (0.5%) and cream containing Compound 8 of the present invention (The same composition as that of the cosmetic composition of Example 14 except that it contained 0.5% by weight of Compound 8) were applied on the back once in the morning for 5 days (Treatment Stage; Day 8-Day 12). An untreated control group and a disease control group (vehicle) were treated with cream not containing Compound 8 of the present invention (cosmetic composition of Comparative Example 2) and ethanol, and during the treatment period, imiquimod 5% cream was applied thereon every other day, thereby maintaining psoriasis. […]
smiles,measurement,setting,value
CCCCCCCCCCCCCCCC(=O)NCCCC[C@H](NC(=O)[C@H](CCCCN(CC(=O)O)CC(=O)O)N(CC(=O)O)CC(=O)O)C(=O)O [Compound 8],expression of Beclin-1 protein,[1],significantly increased
same,expression level of IL-36G gene,[2],significantly decreased
same,expression level of KLK7 gene,[3],significantly decreased
same,expression level of OASL gene,[4],significantly decreased
same,expression level of ALOX12B gene,[5],significantly decreased
same,expression level of Foxp3,[6],reduced
same,KRT6 (proliferative marker) level,[7],reduced
same,KRT16 (proliferative marker) level,[8],reduced
same,KRT1 (differentiation marker) level,[9],increased
same,thickness of stratum corneum,[10],significantly reduced
